US7674784B2, “Drug and food or drink for improving hyperglycemia” (Morinaga Milk Industry Co., Ltd., priority 2004, dated 2010)
Where a name gives a salt, the structure may show the parent alone.

Columns and labels:
Format in all cases: in vivo
[1] = system: type-II diabetes model mice (db/db mice); assay: Test Example 3: effective concentration of 24-methylene-9,19-cyclolanostan-3-ol for hemoglobin Alc lowering, 40 days; settings: for Hemoglobin Alc levels (%) 41st day from the administration: negative sample = 100; for lowering effect for the hemoglobin Alc levels in comparison with negative sample: 41st day
Protocol: The 24-methylene-9,19-cyclolanostan-3-ol produced in Preparation Example 1 mentioned above was used as a test sample 3.
In this test, 6-week old male db/db mice (purchased from Clea Japan, Inc.) were used as type-II diabetes model mice. These mice were divided into groups, each consisting of 7 animals. The test sample 3 was dissolved in DMSO, and the concentration of 24-methylene-9,19-cyclolanostan-3-ol was adjusted to 0.1 or 1 μg/ml with physiological saline. The final DMSO concentration was adjusted to 0.2%. […] The type-II diabetes model mice were administered with 1 mL of the test sample 3 solution of either concentration or negative sample solution once a day everyday with a sonde for 40 consecutive days. On the 41st day from the start of the repetitive administration, hemoglobin Alc levels were measured by using DCA 2000 (Bayer-Sankyo Co., Ltd.).

[2] = system: type-II diabetes model mice (db/db mice); assay: Test Example 2: hemoglobin Alc lowering action compared with a clinical antidiabetic drug, 22 days; settings: for Hemoglobin Alc levels (%) 23rd day from the administration: oral 1 mL once a day for 22 days, test samples 1 μg/mL, control sample 1 7.5 μg/mL pioglitazone hydrochloride, negative sample = 100
Protocol: This test was performed in order to compare the hemoglobin Alc lowering action of the compounds of the present invention with that of an antidiabetic drug used in the clinical practice.
The same test sample 1 (9,19-cyclolanostan-3-ol) and test sample 2 (24-methylene-9,19-cyclolanostan-3-ol) used in Test Example 1 were used.
As type-II diabetes model mice, 6-week old male db/db mice (purchased from Clea Japan, Inc.) were used. These mice were divided into groups, each consisting of 7 animals. Each test sample was dissolved in DMSO, and the concentration was adjusted to 1 μg/mL with physiological saline. The final DMSO concentration was adjusted to 0.2%. […] Further, as a control sample 1, ACTOS® tablets (Takeda Pharmaceutical Co., Ltd.) were ground in a mortar and dissolved in physiological saline so that the concentration of pioglitazone hydrochloride as the active ingredient should become 7.5 μg/mL. The type-II diabetes model mice were orally administered with 1 mL of each test sample solution, control sample 1 solution or negative sample solution once a day everyday with a sonde for 22 consecutive days. On the 23rd day from the start of the administration, hemoglobin Alc levels were measured by using DCA 2000 (Bayer-Sankyo Co., Ltd.).

[3] = system: type-II diabetes model mice (db/db mice); assay: Test Example 4: random and fasting blood glucose levels during repetitive administration, 40 days; settings: 1 mL once a day for 40 days, test samples 1 μg/mL, control sample 15 μg/ml; for changes over time in random blood glucose levels: FIG. 1; for changes over time in fasting blood glucose levels: after 15 hours of fasting, FIG. 2
Protocol: This test was performed in order to evaluate the hemoglobin Alc lowering action and hyperglycemia improving effect activity of compounds having the cyclolanostane skeleton.
The 9,19-cyclolanostan-3-ol and 24-methylene-9,19-cyclolanostan-3-ol produced in Preparation Example 1 mentioned above were used as test samples 1 and 2, respectively. Further, β-sitosterol (Tama Biochemical Co., Ltd.) was used as a control sample.
In this test, 6-week old male db/db mice (purchased from Clea Japan, Inc.) were used as type-II diabetes model mice. These mice were divided into groups, each consisting of 7 animals. Each sample was dissolved in DMSO, and the concentrations of 9,19-cyclolanostan-3-ol and […] were adjusted to 1 μg/mL with physiological saline to obtain test sample 1 solution and test sample 2 solution. Further, concentration of β-sitosterol was adjusted to 15 μg/ml in a similar manner to obtain a control sample solution. The final DMSO concentration was adjusted to 0.2%. […] The type-II diabetes model mice were administered with 1 mL of one of the test sample solutions, control sample solution and negative sample solution once a day everyday with a sonde for 40 consecutive days. Fasting blood glucose levels and random blood glucose levels were measured over time by using Antisense II (Bayer-Sankyo Co., Ltd.). The fasting blood glucose levels were measured after 15 hours of fasting.

[4] = system: type-II diabetes model mice (db/db mice); assay: Test Example 1: hemoglobin Alc lowering action, repetitive administration for 45 days; settings: for Hemoglobin Alc levels (%) 43rd day from the administration: 1 mL of 1 μg/mL once a day with a sonde, negative sample = 100; for lowering effect on hemoglobin Alc levels in comparison with negative sample: 43rd day, 1 mL of 1 μg/mL once a day
Protocol: This test was performed in order to determine the hemoglobin Alc lowering action of a compound having the cyclolanostane skeleton.
The 9,19-cyclolanostan-3-ol and 24-methylene-9,19-cyclolanostan-3-ol produced in Preparation Example 1 mentioned above were used as test samples 1 and 2, respectively.
As type-II diabetes model mice, 6-week old male db/db mice (purchased from Clea Japan, Inc.) were used in this test. These mice were divided into groups, each consisting of 7 animals. Each test sample was dissolved in DMSO, and the concentration was adjusted to 1 μg/mL with physiological saline. The final DMSO concentration was adjusted to 0.2%. […] The type-II diabetes model mice were administered with 1 mL of either of the test sample solutions or the negative sample solution once a day everyday with a sonde for 45 consecutive days. On the 43rd day of the repetitive administration, hemoglobin Alc levels were measured by using DCA 2000 (Bayer-Sankyo Co., Ltd.).

| Compound | Hemoglobin Alc levels (%) 41st day from the administration ([1]; 0.1 μg (1 mL of 0.1 μg/ml once a day, 40 days)) | Hemoglobin Alc levels (%) 41st day from the administration ([1]; 1 μg (1 mL of 1 μg/ml once a day, 40 days)) | lowering effect for the hemoglobin Alc levels in comparison with negative sample ([1]; dose of 0.1 μg/day) | lowering effect for the hemoglobin Alc levels in comparison with negative sample ([1]; dose of 1 μg/day) | decreases in hemoglobin Alc levels in comparison with negative sample ([2]; 23rd day from the start of the administration) | Hemoglobin Alc levels (%) 23rd day from the administration [2] | changes over time in random blood glucose levels [3] | changes over time in fasting blood glucose levels [3] | Hemoglobin Alc levels (%) 43rd day from the administration [4] | lowering effect on hemoglobin Alc levels in comparison with negative sample [4] |
| --- | --- | --- | --- | --- | --- | --- | --- | --- | --- | --- |
| 24-methylene-9,19-cyclolanostan-3-ol [Test sample 2] | 98.1 ± 22.3% | 81.6 ± 14.6% | about 1.9% | 18.4% | – | – | – | – | – | – |
| CCc1ccc(CCOc2ccc(CC3SC(=O)NC3=O)cc2)nc1 (stereo not drawn) [Control sample 1, pioglitazone hydrochloride, reference compound] | – | – | – | – | about 0.8% | 92.1 ± 0.2% | – | – | – | – |
| CC[C@H](CC[C@@H](C)[C@H]1CC[C@H]2[C@@H]3CC=C4C[C@@H](O)CC[C@]4(C)[C@H]3CC[C@]12C)C(C)C [Control sample, β-sitosterol, reference compound] | – | – | – | – | – | – | rapid increase were observed | rapid increase were observed | – | – |
| CC(C)CCCC(C)C1CCC2(C)C3CCC4C(C)(C)C(O)CCC45CC35CCC12C (stereo not drawn) [Test sample 1, 9,19-cyclolanostan-3-ol] | – | – | – | – | – | 85.4 ± 11.2% | effect of suppressing the increases in blood glucose levels was clearly observed | effect of suppressing the increases in blood glucose levels was clearly observed | 91.8 ± 19.6% | 8.2% |
| C=C(CCC(C)C1CCC2(C)C3CCC4C(C)(C)C(O)CCC45CC35CCC12C)C(C)C (stereo not drawn) [Test sample 2, 24-methylene-9,19-cyclolanostan-3-ol] | – | – | – | – | – | 82.0 ± 7.9% | effect of suppressing the increases in blood glucose levels was clearly observed | effect of suppressing the increases in blood glucose levels was clearly observed | 85.6 ± 9.3% | 14.5% |
